For four molecules, IC50 and remaining binding results are on record in patent US12240844B2 (Voronoi, Inc., priority 2019, dated 2025).

The target in assay [1] is T1, human GST-CLK1 (129-end) (Homo sapiens, UniProt P49759).
T1 construct: purified human GST-CLK1 (129-end, Signalchem) enzyme; GST; purchased Signalchem
Briefly: GST-CLK1 enzyme inhibition, ADP-Glo kinase assay. It counts as biochemical. Conditions: ATP 10 uM. In a few lines:
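GST-CLK1 (129-end, 3 ng) reacted with 10 uM ATP and substrate in 40 mM Tris-HCl pH 7.4, 20 mM MgCl2, 0.5 mg/mL BSA, 50 uM DTT, 1 h at 25° C. ADP-Glo luminescence normalised to solvent control; IC50 from triplicate data.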
(In general: ADP-Glo first removes unused ATP, then detects ADP through luciferase.)

In assay [2] the target is T2, LRRK2 (Homo sapiens, UniProt Q5S007). Briefly: LRRK2 enzyme inhibition, ADP-Glo kinase assay. In kind it is biochemical. Also on record: purchased Invitrogen PR8604B. Summed up: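 Purified human LRRK2 (25 ng) in 40 mM Tris-HCl pH7.4, 20 mM MgCl2, 0.5 mg/ml BSA, 50 μM DTT with 10 μM ATP and substrate ([…]), 2 h at 25° C. Final compound 50 to 0.000001024 μM, 12-point dilution. ADP-Glo luminescence vs solvent control; IC50 (nM).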
Target sequence in this assay (Q5S007 970-2527 limits assumed): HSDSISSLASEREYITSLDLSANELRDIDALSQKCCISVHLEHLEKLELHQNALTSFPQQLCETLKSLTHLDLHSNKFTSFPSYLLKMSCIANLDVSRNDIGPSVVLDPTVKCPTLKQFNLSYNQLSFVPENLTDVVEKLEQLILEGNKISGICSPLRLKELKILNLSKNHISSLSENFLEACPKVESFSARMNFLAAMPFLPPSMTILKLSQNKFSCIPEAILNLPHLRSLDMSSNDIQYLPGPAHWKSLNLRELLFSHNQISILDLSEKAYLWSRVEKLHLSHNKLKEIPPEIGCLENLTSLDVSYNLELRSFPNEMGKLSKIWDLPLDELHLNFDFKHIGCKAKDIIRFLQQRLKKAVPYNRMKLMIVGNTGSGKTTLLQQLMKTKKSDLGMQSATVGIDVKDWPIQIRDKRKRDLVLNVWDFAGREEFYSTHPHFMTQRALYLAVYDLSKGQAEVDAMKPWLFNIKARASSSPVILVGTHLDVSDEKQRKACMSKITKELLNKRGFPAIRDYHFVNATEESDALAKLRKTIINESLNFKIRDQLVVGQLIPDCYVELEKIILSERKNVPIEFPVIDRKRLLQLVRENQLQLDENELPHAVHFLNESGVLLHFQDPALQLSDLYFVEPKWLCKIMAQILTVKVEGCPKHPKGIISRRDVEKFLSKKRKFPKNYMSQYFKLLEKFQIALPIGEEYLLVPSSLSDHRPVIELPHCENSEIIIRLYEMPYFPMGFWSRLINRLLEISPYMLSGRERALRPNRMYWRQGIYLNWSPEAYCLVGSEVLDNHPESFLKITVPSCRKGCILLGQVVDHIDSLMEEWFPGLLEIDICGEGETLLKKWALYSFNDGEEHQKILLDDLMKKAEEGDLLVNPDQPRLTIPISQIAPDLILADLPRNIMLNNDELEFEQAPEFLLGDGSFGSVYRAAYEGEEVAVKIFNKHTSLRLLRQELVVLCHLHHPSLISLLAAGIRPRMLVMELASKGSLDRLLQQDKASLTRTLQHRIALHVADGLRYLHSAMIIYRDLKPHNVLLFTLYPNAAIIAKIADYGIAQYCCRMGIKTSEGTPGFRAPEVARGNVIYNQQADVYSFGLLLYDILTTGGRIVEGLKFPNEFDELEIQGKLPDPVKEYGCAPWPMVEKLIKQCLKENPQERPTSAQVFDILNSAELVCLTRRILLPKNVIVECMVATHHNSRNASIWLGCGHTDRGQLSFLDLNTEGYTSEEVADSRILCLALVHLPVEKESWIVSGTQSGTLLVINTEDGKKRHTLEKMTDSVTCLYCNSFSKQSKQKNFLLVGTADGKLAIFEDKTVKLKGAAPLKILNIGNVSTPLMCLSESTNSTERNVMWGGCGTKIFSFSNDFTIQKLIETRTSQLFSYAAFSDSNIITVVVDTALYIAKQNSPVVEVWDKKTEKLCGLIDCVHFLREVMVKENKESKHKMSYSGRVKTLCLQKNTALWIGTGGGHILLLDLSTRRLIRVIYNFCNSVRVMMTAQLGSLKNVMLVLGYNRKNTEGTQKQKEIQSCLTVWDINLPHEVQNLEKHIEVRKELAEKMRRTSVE

Assay [3] concerns the target T2, LRRK2. Briefly: scanMAX Kinase panel (DiscoverX), % control. Conditions: <35% = active. More on the design: purchased DiscoverX. In kind it is binding. On the procedure: (§1) Specifically, for Examples 162, 160, 105, 217, 205, 96, 207, 184, 206, 221, 238, and 237 selected among the example compounds of the present invention, it was decided to measure enzyme (kinase) selectivity by DiscoverX, and the experiment was conducted using a panel for scanMAX™ Kinase analysis. At this time, the concentration of the drug treated with the enzyme was 1 uM in DMSO, the control percentage (% control) was determined in the same way as in Equation 1 below, and the results were shown in Table 6 below. [formula] Here, the positive control refers to a compound showing a control percentage of 0%, and the negative control is DMSO, indicating a control percentage of 100%. Also, in the enzyme selectivity of the present invention, if the control percentage for each enzyme was <35% (i.e., less than 35%), it was determined to have activity against the relevant enzyme.
Target sequence in this assay (Q5S007 whole entry): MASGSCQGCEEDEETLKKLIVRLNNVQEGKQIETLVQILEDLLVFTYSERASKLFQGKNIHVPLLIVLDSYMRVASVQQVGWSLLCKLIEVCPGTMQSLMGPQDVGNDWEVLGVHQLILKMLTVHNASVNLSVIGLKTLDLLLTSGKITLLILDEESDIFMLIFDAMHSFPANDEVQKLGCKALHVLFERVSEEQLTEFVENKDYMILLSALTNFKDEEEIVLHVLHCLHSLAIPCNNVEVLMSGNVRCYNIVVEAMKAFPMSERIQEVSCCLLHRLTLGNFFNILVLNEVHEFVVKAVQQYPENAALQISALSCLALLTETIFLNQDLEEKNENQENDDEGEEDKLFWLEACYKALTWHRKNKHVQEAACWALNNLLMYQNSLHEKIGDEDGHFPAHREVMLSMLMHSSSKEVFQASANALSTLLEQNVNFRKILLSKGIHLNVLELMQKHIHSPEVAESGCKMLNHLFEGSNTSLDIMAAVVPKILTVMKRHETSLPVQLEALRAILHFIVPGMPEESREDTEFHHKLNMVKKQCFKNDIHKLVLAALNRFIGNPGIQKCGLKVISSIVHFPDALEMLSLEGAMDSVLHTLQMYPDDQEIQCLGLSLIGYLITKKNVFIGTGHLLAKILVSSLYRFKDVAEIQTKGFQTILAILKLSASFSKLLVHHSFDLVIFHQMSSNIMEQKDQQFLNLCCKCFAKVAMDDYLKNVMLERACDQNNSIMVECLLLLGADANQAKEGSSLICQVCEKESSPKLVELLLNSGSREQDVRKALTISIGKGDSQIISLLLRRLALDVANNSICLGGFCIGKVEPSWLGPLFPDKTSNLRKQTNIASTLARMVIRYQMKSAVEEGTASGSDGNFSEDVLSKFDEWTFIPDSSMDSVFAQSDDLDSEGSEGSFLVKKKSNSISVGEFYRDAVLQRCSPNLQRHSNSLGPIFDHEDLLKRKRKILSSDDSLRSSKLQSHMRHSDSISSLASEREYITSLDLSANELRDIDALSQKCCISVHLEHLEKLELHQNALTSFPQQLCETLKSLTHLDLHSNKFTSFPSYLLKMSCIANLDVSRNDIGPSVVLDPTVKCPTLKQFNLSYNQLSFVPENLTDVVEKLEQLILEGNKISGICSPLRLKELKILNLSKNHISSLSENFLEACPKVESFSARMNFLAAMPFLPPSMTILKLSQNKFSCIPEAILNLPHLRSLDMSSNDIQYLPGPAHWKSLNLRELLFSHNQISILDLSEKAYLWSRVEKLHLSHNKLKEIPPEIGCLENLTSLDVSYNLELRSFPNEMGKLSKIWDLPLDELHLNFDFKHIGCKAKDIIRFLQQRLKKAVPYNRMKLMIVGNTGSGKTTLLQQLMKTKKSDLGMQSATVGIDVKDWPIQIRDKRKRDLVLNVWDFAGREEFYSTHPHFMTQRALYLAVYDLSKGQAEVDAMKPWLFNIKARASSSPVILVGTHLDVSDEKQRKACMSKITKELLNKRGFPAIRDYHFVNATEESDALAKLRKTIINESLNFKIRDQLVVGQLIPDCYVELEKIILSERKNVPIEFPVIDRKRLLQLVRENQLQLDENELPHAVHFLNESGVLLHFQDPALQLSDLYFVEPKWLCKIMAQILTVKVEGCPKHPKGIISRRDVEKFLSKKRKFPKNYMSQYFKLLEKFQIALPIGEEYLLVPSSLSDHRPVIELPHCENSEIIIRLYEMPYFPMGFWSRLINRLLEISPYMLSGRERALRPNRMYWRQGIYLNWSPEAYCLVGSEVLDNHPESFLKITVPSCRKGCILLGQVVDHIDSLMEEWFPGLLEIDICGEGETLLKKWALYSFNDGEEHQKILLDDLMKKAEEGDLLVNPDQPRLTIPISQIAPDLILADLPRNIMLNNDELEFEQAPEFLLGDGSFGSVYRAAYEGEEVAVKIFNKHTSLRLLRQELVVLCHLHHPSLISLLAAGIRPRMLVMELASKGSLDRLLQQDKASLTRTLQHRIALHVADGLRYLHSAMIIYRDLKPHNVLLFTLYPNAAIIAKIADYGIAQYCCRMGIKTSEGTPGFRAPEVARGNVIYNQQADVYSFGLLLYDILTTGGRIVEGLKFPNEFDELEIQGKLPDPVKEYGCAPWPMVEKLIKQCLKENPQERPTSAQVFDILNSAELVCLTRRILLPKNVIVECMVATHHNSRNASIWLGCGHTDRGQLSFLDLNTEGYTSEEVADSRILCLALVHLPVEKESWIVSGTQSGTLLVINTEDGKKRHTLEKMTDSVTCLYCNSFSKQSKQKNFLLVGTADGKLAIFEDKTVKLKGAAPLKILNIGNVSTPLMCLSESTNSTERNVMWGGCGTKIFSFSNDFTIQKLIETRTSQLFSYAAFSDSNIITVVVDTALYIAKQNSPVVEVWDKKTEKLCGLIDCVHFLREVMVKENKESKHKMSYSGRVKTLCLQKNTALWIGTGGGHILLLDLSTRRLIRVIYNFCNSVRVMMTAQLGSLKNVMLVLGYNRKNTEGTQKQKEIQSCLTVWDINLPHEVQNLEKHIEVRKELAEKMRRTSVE

In assay [4] the target is LRRK2 (G2019S) (Homo sapiens, UniProt Q5S007, G2019S). Briefly: scanMAX Kinase panel (DiscoverX), % control. In kind it is binding. The conditions noted are these: <35% = active. More on the design: purchased DiscoverX. On the procedure:
as §1

The target of assay [5] is T3, human GST-DYRK1A (full length) (Homo sapiens, UniProt Q13627).
T3 construct: purified human GST-DYRK1A (full length, Thermo scientifics) enzyme; GST; purchased Thermo scientifics
Briefly: GST-DYRK1A enzyme inhibition, ADP-Glo kinase assay. The conditions noted are these: read-out: DYRK1 IC50. It counts as biochemical. Summed up: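 Full-length human GST-DYRK1A (10 ng) incubated with 10 uM ATP and specific substrate for 1 h at 25° C in 40 mM Tris-HCl pH 7.4, 20 mM MgCl2, 0.5 mg/mL BSA, 50 uM DTT. ADP formation read by ADP-Glo luminescence; IC50 (nM) versus solvent control, triplicate.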

Where only a bound is given, the exact number is not on record here.

As a reminder, the IC50 is the concentration that inhibits the measured activity by half.

T1 sequence (P49759 129-484 limits assumed): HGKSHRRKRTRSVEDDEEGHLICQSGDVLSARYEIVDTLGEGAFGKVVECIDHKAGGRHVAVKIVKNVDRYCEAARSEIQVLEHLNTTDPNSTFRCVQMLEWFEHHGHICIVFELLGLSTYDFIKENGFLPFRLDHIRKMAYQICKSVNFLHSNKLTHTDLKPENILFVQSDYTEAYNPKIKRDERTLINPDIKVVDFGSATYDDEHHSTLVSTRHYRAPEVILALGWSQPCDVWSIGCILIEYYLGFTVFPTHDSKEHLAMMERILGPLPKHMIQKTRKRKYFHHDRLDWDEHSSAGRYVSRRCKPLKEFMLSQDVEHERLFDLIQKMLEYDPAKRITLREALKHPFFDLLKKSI
LRRK2 (G2019S), sequence (Q5S007 whole entry G2019S): as the sequence (Q5S007 whole entry) above, with G2019S counted along it

Turning to `CCNc1cc(Nc2ccc(C(=O)N3CCC(N4C[C@@H]5C[C@H]4CO5)CC3)c3c2OCC3)nc2[nH]cc(C(F)(F)F)c12` [Example 105, (4-((1S,4S)-2-oxa-5-azabicyclo[2.2.1]heptan-5-yl)piperidin-1-yl)(7-((4-(ethylamino)-3-(trifluoromethyl)-1H-pyrrolo[2,3-b]pyridin-6-yl)amino)-2,3-dihydrobenzofuran-4-yl)methanone], the 50% inhibitory concentration (IC50) in assay [1], in assay [2] and in assay [5] was less than 100 nM each time. Also, the remaining binding at 1 µM in assay [3] and in assay [4] was 0% throughout.
With `CNc1cc(Nc2ccc(C(=O)N3CC[C@H](N4CCOCC4)C3)c3c2OCC3)nc2[nH]cc(C(F)(F)F)c12` [Example 217, (S)-(7-((4-(methylamino)-3-(trifluoromethyl)-1H-pyrrolo[2,3-b]pyridin-6-yl)amino)-2,3-dihydrobenzofuran-4-yl)(3-morpholinopyrrolidin-1-yl)methanone], the 50% inhibitory concentration (IC50) in assay [1], in assay [2] and in assay [5] was less than 100 nM throughout. The remaining binding at 1 µM in assay [3] and in assay [4] was 1% each time.
Regarding `CNc1cc(Nc2ccc(C(=O)N3CCC(N4CCOCC4)CC3)c3c2OCCO3)nc2[nH]cc(C(F)(F)F)c12` [Example 160, (8-((4-(methylamino)-3-(trifluoromethyl)-1H-pyrrolo[2,3-b]pyridin-6-yl)amino)-2,3-dihydrobenzo [b] [1,4]dioxin-5-yl)(4-morpholinopiperidin-1-yl)methanone], the values for the half-inhibitory concentration (IC50) in assay [1], in assay [2] and in assay [5] were less than 100 nM, less than 100 nM and 101 to 300 nM, respectively. In addition, the remaining binding at 1 µM was 2.8% in assay [3] and 0.35% in assay [4].
Take `COCCNc1cc(Nc2ccc(P3(=O)CCN(C4CC4)CC3)cc2OC)nc2[nH]cc(C(F)(F)F)c12` [Example 207, 1-cyclopropyl-4-(3-methoxy-4-((4-((2-methoxyethyl)amino)-3-(trifluoromethyl)-1H-pyrrolo[2,3-b]pyridin-6-yl)amino)phenyl)-1,4-azaphosphinane 4-oxide]: the IC50 in assay [1] was 101 to 300 nM; in assay [2], 101 to 300 nM; in assay [5] it was less than 100 nM. The results for the remaining binding at 1 µM in assay [3] and in assay [4] were 20% and 16%, respectively.
